Data as given in patent publication US20230140838A9, “NOVEL ACTIVITY-BASED PROBES FOR NEUTROPHIL ELASTASE AND THEIR USE” (Takeda Pharmaceutical Company Limited, priority 2018, published 2023).

How the values were obtained:
neutrophil elastase (NE) = biological target: T1, neutrophil elastase (NE) (Homo sapiens, UniProt P08246); test: Recombinant protease labeling / fluorescent SDS-PAGE, neutrophil elastase; format: binding; conditions: 0.1-1 μM probe
T1 construct: purchased Elastin Products Company
T1 sequence (P08246 30-267): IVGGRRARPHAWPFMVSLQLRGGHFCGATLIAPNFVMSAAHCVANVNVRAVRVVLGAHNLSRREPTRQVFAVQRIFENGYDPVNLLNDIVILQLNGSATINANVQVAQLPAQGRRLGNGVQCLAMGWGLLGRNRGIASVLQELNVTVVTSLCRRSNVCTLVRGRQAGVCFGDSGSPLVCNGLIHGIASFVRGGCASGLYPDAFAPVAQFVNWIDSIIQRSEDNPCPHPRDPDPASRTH

[1] = system: serine proteases in lysates prepared from mouse pancreas; test: Ex vivo labeling of mouse pancreas lysates, in-gel fluorescence and immunoprecipitation; format: binding
Procedure: (§1) Tubes were rocked overnight at 4° C.

NE [2] = biological target: T2, NE (Mus musculus, UniProt Q3UP87); format: binding
T2 sequence (Q3UP87 29-247 limits assumed): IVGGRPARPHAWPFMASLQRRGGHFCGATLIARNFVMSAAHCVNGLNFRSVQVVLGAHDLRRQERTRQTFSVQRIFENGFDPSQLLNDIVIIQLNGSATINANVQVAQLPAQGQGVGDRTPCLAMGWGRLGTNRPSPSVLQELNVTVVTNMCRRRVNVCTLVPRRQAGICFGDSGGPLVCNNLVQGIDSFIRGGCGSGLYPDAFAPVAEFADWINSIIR

NE [3] = test: Ex vivo labeling of human colon mucosal biopsy lysates (ulcerative colitis vs healthy); format: binding
Procedure: as §1
Human mucosal biopsies were obtained from individuals during colonoscopy procedures at Hotel Dieu Hospital in Kingston, Ontario, Canada (Table 1). Patients were well-characterized individuals with active ulcerative colitis (UC) or healthy individuals undergoing routine colonoscopy for cancer screening. For UC patients, biopsies were obtained from sites of active inflammation. Written and verbal consent was obtained prior to enrolment and all protocols were approved by the Queen's University Human Ethics Committee. Fresh biopsies were washed in PBS and then snap frozen for protease analysis as above.

NE [4] = biological target: T2, NE; format: binding; remark: listed apart in the source
NE [5] = system: NE
Procedure: PK105b or Cy5-V-DPP (0, 0.1, 0.5 or 1 μM) was added from a 100×DMSO stock, and reaction was left to occur at 37° C. for 30 minutes. Proteins were solubilized in 4× sample buffer (40% glycerol, 200 mM Tris-Cl [pH 6.8], 8% SDS, 0.04% bromophenol blue, 5% beta-mercaptoethanol), boiled for five minutes and resolved on a 15% SDS-PAGE gel. Probe labeling was detected by scanning the gel for Cy5 fluorescence on a Typhoon 5 flatbed laser scanner (GE Healthcare).
Bone marrow was obtained by flushing tibias and femurs from healthy C57BL/6J mice with PBS. Cells were washed and resuspended in PBS prior to sonication on ice. […] Total protein (60 μg, as measured by BCA assay, Pierce) was aliquoted in a total volume of 20 μl PBS, and probe labeling and SDS-PAGE was carried out as above.
Fluorescent Gels were Transferred to Nitrocellulose Membranes and Blotted Using the Turbo Blot system (BioRad). […] Binding was detected by scanning with the IRLong filter on a Typhoon 5 flatbed laser scanner (GE Healthcare).
PK105b-labeled lysates (boiled in sample buffer for five minutes) were divided into input and immunoprecipitation (IP) samples (100 μg each). […] Supernatants were then analyzed, alongside the input sample, by fluorescent SDS-PAGE as above. […]

## CCC(NC(=O)[C@@H]1CC2CCCCC2N1C(=O)[C@H](CCS(C)(=O)=O)NC(=O)[C@H](CCCCOCc1ccccc1)NC(=O)CCCCCN1/C(=C/C=C/C=C/C2=[N+](CC)c3ccc(S(=O)(=O)[O-])cc3C2(C)C)C(C)(C)c2cc(S(=O)(=O)O)ccc21)P(=O)(Oc1ccccc1)Oc1ccccc1 (stereo partly shown) [PK105b]
Neutrophil elastase (NE)
  potency of NE labeling compared between probes: more potent than Cy5-V-DPP
[1]; 0.1, 0.5 and 1 µM
  labeling of 25-KDa proteins in mouse pancreas lysates (in-gel fluorescence): strongly labeled
[1]; labeled mouse pancreas lysates, antibodies to NE, PE, Try3
  targets of the probe identified by immunoprecipitation: combination of NE, pancreatic elastase (PE), and trypsin 3
NE [2]
  ability to detect NE activity in tissue lysates compared between probes: clearly superior to Cy5-V-DPP
  binding to other species (off-target bands): binding to several species in the 50-75-KDa range
  identity of the labeled band by immunoprecipitation with NE-specific antibody: confirmed to be NE
  labeling of the 25-KDa band in healthy distal colons and proximal regions of healthy and inflamed colons: virtually absent
  labeling of the 25-KDa species in distal colon lysates of TNBS-treated mice: clear labeling of a single protein at 25-KDa
  species of the 25-KDa NE doublet labeled by the probe: Only the lower species
NE [3]; UC biopsy lysates
  identity of labeled bands by immunoprecipitation with NE-specific antibody: confirmed to be NE
NE [3]; human colon mucosal biopsies, UC n=9, normal n=5
  labeling in active ulcerative colitis biopsies compared with healthy individuals: significant increase in labeling
NE [3]; in-gel fluorescence
  number of species labeled in human mucosal lysates: three species were labeled
NE [4]
  identity of the major 25-KDa species by immunoblotting and immunoprecipitation: confirmed to be NE
  labeling in infected lung tissue lysates compared with control lungs: significantly increased
NE [5]; HSC-3 xenograft, two weeks
  labeling in tumor tissues versus normal tongue tissues: clear labeling of a 25-KDa species in tumor tissues, but not normal tongue tissues
NE [5]; unidentified species
  labeling of other high-molecular weight species in tumor/tongue lysates: abundantly labeled
